Test results taken from patent publication US20250313820A1, “PEPTIDES WITH MULTIVALENT EFFECTS” (In2Cure AB, priority 2021, published 2025).
Where two headings read alike, the source gives them in different places. Where a SMILES comes first, the peptide text is derived from it. Bridges are numbered along the chain shown (N, C = ends). [ ]: non-standard residue; d: D form. S5 = C=CCCC[C@](C)(N)C(=O)O

How the values were obtained:
[1] = tested on: proteases (HNE, PE, V8, trypsin); assay: Proteolysis in vitro, fragments by LC-MS/MS
Method: (§7) Peptides were resuspended in endotoxin free water at concentration of 1 mM. […] All digestions were performed in three independent experiments.

[2] = target: T1, human neutrophil elastase (HNE) (Homo sapiens, UniProt P08246); format: in vitro ADME
T1 construct: purchased Calbiochem, Merk KGaA, Darmstadt, Germany
T1 sequence (P08246 30-267): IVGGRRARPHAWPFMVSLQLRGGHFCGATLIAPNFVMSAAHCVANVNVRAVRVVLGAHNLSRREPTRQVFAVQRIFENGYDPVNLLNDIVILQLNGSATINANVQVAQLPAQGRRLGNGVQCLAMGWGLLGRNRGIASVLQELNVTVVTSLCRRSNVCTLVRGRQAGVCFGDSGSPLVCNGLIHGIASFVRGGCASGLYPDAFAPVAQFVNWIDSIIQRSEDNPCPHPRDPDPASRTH
Method: as §7

[3] = target: T2, trypsin (Sus scrofa, UniProt P00761); format: in vitro ADME
T2 construct: purchased Promega, Madison, WI, USA
T2 sequence (P00761 9-231): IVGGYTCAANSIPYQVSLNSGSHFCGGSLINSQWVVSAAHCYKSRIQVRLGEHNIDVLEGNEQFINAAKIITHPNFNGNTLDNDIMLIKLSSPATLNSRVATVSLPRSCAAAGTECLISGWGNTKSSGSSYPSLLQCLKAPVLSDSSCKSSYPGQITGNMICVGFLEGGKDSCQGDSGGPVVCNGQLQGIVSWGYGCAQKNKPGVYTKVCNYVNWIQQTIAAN
Method: as §7

[4] = target: T3, P. aeruginosa elastase (PE) (Pseudomonas aeruginosa, UniProt P14756); format: in vitro ADME; settings: SDS-PAGE, digestion 0-18 h
T3 construct: purchased Calbiochem, Merk KGaA, Darmstadt, Germany
T3 sequence (P14756 198-498): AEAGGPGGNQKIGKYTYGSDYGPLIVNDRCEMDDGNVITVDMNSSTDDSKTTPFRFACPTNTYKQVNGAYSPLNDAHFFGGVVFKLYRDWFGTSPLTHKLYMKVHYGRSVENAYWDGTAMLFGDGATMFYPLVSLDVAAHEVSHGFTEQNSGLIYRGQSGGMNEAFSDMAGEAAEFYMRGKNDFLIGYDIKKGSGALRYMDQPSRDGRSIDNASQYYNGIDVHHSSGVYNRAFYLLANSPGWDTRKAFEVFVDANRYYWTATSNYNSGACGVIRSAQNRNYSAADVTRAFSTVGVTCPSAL
Method: All digestions were performed in three independent experiments.
Two μg of the peptide from each condition were loaded on 10-20% Novex Tricine pre-cast gel from Invitrogen (USA). The run was performed at 100 V for 100 min. The gel was stained by using Coomassie Brilliant blue (Invitrogen, USA). The image has been acquired with a Gel Doc Imager (Bio-Rad Laboratories, USA). Samples from three independent digestions were analysed.

[5] = tested on: whole blood; format: cell-based, human
Method: (§1) Fresh venous blood from healthy donors was collected in lepirudine tubes (50 μg mL-1). Then 50 μL of blood were transferred to round-bottom 96-wells plate containing 150 μL of peptides previously diluted in RPMI-1640—GlutaMAX-I without phenol red (Gibco). 1:4 diluted blood was used as control. 50 μL of blood mixed with 150 μl 5% Tween-20 were used as positive control. After 1 h incubation at 37° C. and 5% CO2, the plate was centrifuged at 800 g, 150 μL of each sample were transferred to a flat-bottom 96-wells plate and the absorbance at 450 nm was measured. The percentage of hemolysis was calculated following the formula reported below: […]
(§2) Data shown are mean values±SEM obtained from at least four independent experiments all made in triplicate. For each experiment blood from a different donor was used.

[6] = tested on: erythrocytes (RBCs); format: cell-based, human
Method: as §1
To evaluate the hemolytic effect of the peptides on erythrocytes the blood was collected as reported above and centrifuged at 250 g for 10 min. Then plasma was discarded, and red blood cells were washed with 150 mM NaCl in 10 mM Tris pH 7.4 for three times. Next, the pellet was dilute 100 times with saline Tris buffer. 100 μL of this solution were added to round-bottom 96-wells plate containing 100 μL of peptides previously diluted in saline Tris buffer. After 1 h incubation at 37° C. and 5% CO2, the plate was centrifuged and the absorbance at 450 nm was measured, then the percentage of erythrocyte lysis was determined using formula reported above.
as §2

[7] = tested on: release of TNF-α in LPS stimulated blood; assay: Whole blood assay with cytokine ELISA: TNF-α; format: cell-based; settings: 25% human blood, 100 ng mL^−1 E. coli LPS, 24 h; read-out: Anti-inflammatory activity: Peptide concentration that reduces by 50% the release of TNF-α in LPS stimulated blood
Method: (§3) Fresh venous blood was collected in the presence of lepirudin (50 μg mL^−1) from healthy donors. […] After 24 h incubation at 37° C. in 5% CO2, the plate was centrifuged for 5 min at 1000 g and then the supernatants were collected and stored at −80° C. before analysis. The experiment was performed at least 4 times by using blood from different donors each time. To evaluate the healing properties of the peptides, the blood was stimulated with 100 ng mL^−1 LPS and after 30 min incubation at 37° C. was treated with increasing doses of four peptides. […] Then the blood was stimulated with 100 ng mL^−1 of LPS.
(§4) Plasma obtained from blood experiment was used to evaluate cytokine release. Human inflammation DuoSet® ELISA Kit (R&D Systems) specific for TNF-α and IL-1β was used according to the manufacturer's instructions. Absorbance was measured at a wavelength of 450 nm. Data shown are mean values±SEM obtained from at least four independent experiments all performed in duplicate.
(§5) For each experiment blood from a different donor was used.
(§6) Plasma obtained from blood experiments was used to evaluate cytokine release. […] Absorbance was measured at a wavelength of 450 nm. […]
as §6

[8] = tested on: cytokines released from human blood stimulated with E. coli LPS; assay: Whole blood assay, cytokines overall (TNF-α and IL-1β); format: cell-based; settings: 25% blood, 100 ng mL^−1 LPS, peptide added before or together with LPS, 24 h
Method: as §3, §4, §5, §6, §6

Row | Molecule | protection to proteolysis / fragments released (LC-MS/MS) [1] | stability in the presence of HNE enhanced up to (time) [2] | intact peptide still detected after trypsin digestion (time) [3] [h] | stability in the presence of PE enhanced up to (time) [4] | hemolytic activity in whole blood, in words [5] | Hemolytic activity, lysed RBCs in whole blood ([5]; 1 h) [%] | hemolytic activity, RBCs or whole blood (heatmaps FIG. 4, FIG. 20a), in words [6] | Hemolytic activity, lysed RBCs ([6]; 1 h) [%] | IC50 [7] [µM] | anti-inflammatory activity in LPS-stimulated blood (TNF-α and IL-1β release), in words [8] | Hemolytic activity, lysed RBCs in whole blood [5] [%] | Hemolytic activity, lysed RBCs [6] [%]
1 | CC[C@H](C)[C@H](NC(=O)[C@H](Cc1c[nH]c2ccccc12)NC(=O)[C@H](CCCCN)NC(=O)[C@H](CCCCN)NC(=O)[C@H](CC(C)C)NC(=O)[C@H](CCCNC(=N)N)NC(=O)[C@H](Cc1ccccc1)NC(=O)[C@@H](NC(=O)[C@@H](N)Cc1c[nH]cn1)C(C)C)C(=O)N[C@@]1(C)CCCC=CCCC[C@@](C)(C(=O)N[C@@H](CCC(N)=O)C(=O)N[C@@H](Cc2ccccc2)C(=O)NCC(=O)N[C@@H](CCC(=O)O)C(=O)O)NC(=O)[C@H]([C@@H](C)CC)NC(=O)[C@H](C(C)C)NC(=O)[C@H](CCCCN)NC1=O [sHVF18, HVFRLKKWIXKVIXQFGE] | complete protection to proteolysis | up to 18 h | ≥ 18 | up to 18 h | significantly lower hemolytic activity | <1 | lower hemolytic activity if compared with sGKY25 | 35.4 ± 5.9 | – | – | – | –
2 | CC[C@H](C)[C@H](NC(=O)[C@H](Cc1c[nH]c2ccccc12)NC(=O)[C@H](CCCCN)NC(=O)[C@H](CCCCN)NC(=O)[C@H](CC(C)C)NC(=O)[C@H](CCCNC(=N)N)NC(=O)[C@H](Cc1ccccc1)NC(=O)[C@@H](NC(=O)[C@H](CCCNC(=N)N)NC(=O)[C@@H](N)CCCNC(=N)N)C(C)C)C(=O)N[C@@]1(C)CCCC=CCCC[C@@](C)(C(=O)N[C@@H](CCC(N)=O)C(=O)N[C@@H](Cc2ccccc2)C(=O)NCC(=O)N[C@@H](CCC(=O)O)C(=O)O)NC(=O)[C@H]([C@@H](C)CC)NC(=O)[C@H](C(C)C)NC(=O)[C@H](CCCCN)NC1=O [sRRVF18, RRVFRLKKWIX1KVIX2QFGE] (H-RRVFRLKKWI[S5]KVI[S5]QFGE-OH; staple 11-15) | – | – | – | – | – | <1 | – | 49.1 ± 4.9 | – | – | – | –
3 | CC[C@H](C)[C@H](NC(=O)[C@H](Cc1c[nH]c2ccccc12)NC(=O)[C@H](CCCCN)NC(=O)[C@H](CCCCN)NC(=O)[C@H](CC(C)C)NC(=O)[C@H](CCCNC(=N)N)NC(=O)[C@H](Cc1ccccc1)NC(=O)[C@@H](NC(=O)[C@@H](N)CCCNC(=N)N)C(C)C)C(=O)N[C@@]1(C)CCCC=CCCC[C@@](C)(C(=O)N[C@@H](CCC(N)=O)C(=O)N[C@@H](Cc2ccccc2)C(=O)NCC(=O)N[C@@H](CCC(=O)O)C(=O)O)NC(=O)[C@H]([C@@H](C)CC)NC(=O)[C@H](C(C)C)NC(=O)[C@H](CCCCN)NC1=O [sRVF18, RVFRLKKWIXKVIXQFGE] (H-RVFRLKKWI[S5]KVI[S5]QFGE-OH; staple 10-14) | – | – | – | – | – | <1 | – | 53.6 ± 3.8 | – | – | – | –
4 | cyclo[GKYGE]YTHVFRLKKWIXKVIXQFGE [2sGKY25] | – | – | – | – | slightly lower than for sGKY25, but definitely higher than for sHVF18 | – | – | – | 8 ± 2.3 | better suppression of LPS-induced TNF-α and IL-1β release than GKY25 | <1 | 49.1 ± 13.6
